In PubChem BioAssay (NCI):
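48-hour exposure; five concentrations; linearly interpolated endpoints. GI50 is the concentration that inhibits growth by half. Definition used: TGI = concentration required for complete inhibition of growth.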

How the values were obtained:
Assay in all cases: NCI-60 cell line screen, 48 h
TK-10 renal = test system: TK-10 renal
SK-MEL-2 melanoma = test system: SK-MEL-2 melanoma
HCT-116 colon = test system: HCT-116 colon
HOP-92 NSCLC = test system: HOP-92 NSCLC
T-47D breast = test system: T-47D breast
COLO 205 colon = test system: COLO 205 colon
U251 CNS = test system: U251 CNS
MDA-MB-231 breast = test system: MDA-MB-231 breast

Structure (SMILES) | TGI (TK-10 renal) | TGI (SK-MEL-2 melanoma) | TGI (HCT-116 colon) | TGI (HOP-92 NSCLC) | TGI (T-47D breast) | TGI (COLO 205 colon) | GI50 (TK-10 renal) | GI50 (SK-MEL-2 melanoma) | GI50 (U251 CNS) | TGI (U251 CNS) | GI50 (HCT-116 colon) | GI50 (HOP-92 NSCLC) | GI50 (T-47D breast) | GI50 (MDA-MB-231 breast) | TGI (MDA-MB-231 breast) | GI50 (COLO 205 colon)
COC(=O)c1c[nH]c(=O)[nH]c1=O | > 100 µM | > 100 µM | > 100 µM | > 100 µM | > 100 µM | > 100 µM | – | – | – | – | – | – | – | – | – | –
COc1cc(C)c(C(=O)O[C@H]2[C@H](O[C@H]3[C@@H](O)COC(O[C@H]4C[C@H]5[C@@H]6CC=C7C[C@@H](O)CC[C@]7(C)[C@H]6CC[C@]5(C)[C@H]4[C@H](C)C(=O)CCC(C)C)[C@@H]3OC(C)=O)OC[C@@H](O)[C@@H]2O)c(C)c1 (stereo not given in full) | 16.6 µM | 0.302 µM | 2.29 µM | 2.58 µM | 16.7 µM | 0.382 µM | 0.704 µM | < 0.01 µM | < 0.01 µM | 12.8 µM | < 0.01 µM | < 0.01 µM | 0.0249 µM | 0.517 µM | 16.1 µM | 0.0307 µM
O=C1NC(=O)/C(=C/C=C/c2ccccc2)S1 | > 100 µM | > 79.3 µM | 18.6 µM | > 81.1 µM | > 100 µM | > 48.3 µM | 28.6 µM | 24.4 µM | 0.693 µM | 18.1 µM | 2.36 µM | 11.1 µM | 12.8 µM | 30.4 µM | > 100 µM | 14.4 µM
Nc1ccc(-c2nc3ccc4[nH]ncc4c3c3c2CCCC3)cc1F | 22.4 µM | 6.19 µM | 5.99 µM | 11.2 µM | 7.77 µM | 6.77 µM | 0.828 µM | 1.27 µM | 1.29 µM | 8.95 µM | 0.6 µM | 1.7 µM | 1.2 µM | 1.71 µM | 30.5 µM | 1.42 µM
COc1ccc(OC)c(-c2nc3sccn3c2/C=C2/C(=O)Nc3ccc(Cl)cc32)c1 | > 100 µM | 35.2 µM | > 100 µM | > 100 µM | 70.1 µM | 39.5 µM | 29.9 µM | 17.5 µM | 24.9 µM | 74.1 µM | 29.7 µM | 24.4 µM | 26.6 µM | 20.3 µM | 55.3 µM | 18.5 µM
O=C1c2ccccc2C(=O)c2c1ccc(C(Br)Br)c2[N+](=O)[O-] | 3.84 µM | 4.09 µM | 2.19 µM | 3.3 µM | 3.89 µM | – | 1.95 µM | 1.91 µM | 1.6 µM | 2.97 µM | 0.739 µM | 1.7 µM | 1.63 µM | 1.55 µM | 3.13 µM | –
CC(=O)Oc1ccc(OC(C)=O)c2ccccc12 | 31.5 µM | 27 µM | 12.9 µM | 3.05 µM | 3.16 µM | 28.2 µM | 17.2 µM | 12.8 µM | 13.8 µM | 27.2 µM | 3.59 µM | 1.49 µM | 1.21 µM | 1.17 µM | 2.48 µM | 15 µM
C=C1CCC2C3(C)COC(c4ccc(NC(C)=O)cc4)OC3CCC2(C)C1C/C=C1/C(=O)OCC1O (stereo not given) | > 100 µM | > 100 µM | > 100 µM | > 100 µM | > 100 µM | > 100 µM | 6.25 µM | 8.12 µM | 79 µM | > 100 µM | 4.7 µM | 3.83 µM | 2.53 µM | > 100 µM | > 100 µM | 4.22 µM
COc1ccccc1/C=C\c1cnnc2ccccc12 | > 10 µM | > 10 µM | > 10 µM | 7.61 µM | > 10 µM | > 10 µM | – | – | – | > 10 µM | – | – | – | – | > 10 µM | –
CN1/C(=C\C(I)C(I)C2=[N+](C)c3ccccc3C2(C)C)C(C)(C)c2ccccc21 (stereo not given) | 27.9 µM | 2.75 µM | 11.6 µM | 1.23 µM | 9.39 µM | 0.733 µM | 0.521 µM | 0.39 µM | 0.262 µM | 15.7 µM | 0.0852 µM | 0.0931 µM | 0.0852 µM | 0.773 µM | 20.9 µM | 0.21 µM
O=C(c1ccccc1)C1C(C(=O)c2ccccc2)N1Cc1ccccc1 (stereo not given) | > 100 µM | 51.5 µM | – | > 100 µM | 49.8 µM | 58.3 µM | – | – | – | > 100 µM | – | – | – | – | > 100 µM | –
C#CCN1C(=O)/C(=c2\sc3n(c2=O)C2C(NN=3)N(CC)C(=O)N2CC)c2ccccc21 (stereo not given) | 51.4 µM | > 100 µM | > 100 µM | 78.7 µM | > 100 µM | > 100 µM | 14.1 µM | 3.21 µM | 0.648 µM | > 47 µM | 0.376 µM | 1.55 µM | 0.639 µM | 2.07 µM | 40 µM | 0.987 µM
CCCCCCCCCCCC(=O)OCC1OC(n2cc(F)c(=O)[nH]c2=O)C(NC(=O)OCc2ccccc2)C(O)C1O (stereo not given) | > 100 µM | 42.5 µM | 30.3 µM | 40.7 µM | – | 39.7 µM | – | – | – | 38.9 µM | – | – | – | – | – | –
O=C(/C=C/c1ccc(C(F)(F)F)cc1)c1ccc(Nc2nc(NCCO)nc(NCCO)n2)cc1 | 14.5 µM | – | 3.9 µM | 25 µM | 11.8 µM | 4.22 µM | 2.93 µM | – | – | – | 1.79 µM | 5.28 µM | 2.51 µM | 3.29 µM | 13.8 µM | 2.05 µM
CCCCCCCCCCCCn1c(C)nc2ccccc21 | 25.5 µM | – | 13 µM | 23.9 µM | 19.1 µM | 27.4 µM | 11.2 µM | – | 11 µM | 24.9 µM | 0.712 µM | 11 µM | 0.325 µM | 15.3 µM | 34.8 µM | 13.2 µM
COc1ccc(/C=C/c2c(C(=O)/C=C/c3ccc(Cl)cc3)c(C)nc3ccccc23)cc1 | 4.95 µM | 4.06 µM | 2.19 µM | – | 5.72 µM | 5.29 µM | 2.87 µM | 1.83 µM | 1.75 µM | 3.55 µM | 0.799 µM | – | 1.7 µM | 2.38 µM | 7.82 µM | 2.13 µM
O=P(Oc1ccc(Cl)cc1)(Oc1ccc(Cl)cc1)N1CC1 | > 10 µM | > 10 µM | – | – | > 10 µM | > 10 µM | – | – | – | > 10 µM | – | – | – | – | > 10 µM | –
